The record followed here is patent US12139471B2, “NLRP3 inflammasome inhibitors” (Novartis AG, priority 2019, dated 2024).

Broadly, the IC50 is the concentration that gives 50% inhibition.

T1 sequence (Q96P20 whole entry): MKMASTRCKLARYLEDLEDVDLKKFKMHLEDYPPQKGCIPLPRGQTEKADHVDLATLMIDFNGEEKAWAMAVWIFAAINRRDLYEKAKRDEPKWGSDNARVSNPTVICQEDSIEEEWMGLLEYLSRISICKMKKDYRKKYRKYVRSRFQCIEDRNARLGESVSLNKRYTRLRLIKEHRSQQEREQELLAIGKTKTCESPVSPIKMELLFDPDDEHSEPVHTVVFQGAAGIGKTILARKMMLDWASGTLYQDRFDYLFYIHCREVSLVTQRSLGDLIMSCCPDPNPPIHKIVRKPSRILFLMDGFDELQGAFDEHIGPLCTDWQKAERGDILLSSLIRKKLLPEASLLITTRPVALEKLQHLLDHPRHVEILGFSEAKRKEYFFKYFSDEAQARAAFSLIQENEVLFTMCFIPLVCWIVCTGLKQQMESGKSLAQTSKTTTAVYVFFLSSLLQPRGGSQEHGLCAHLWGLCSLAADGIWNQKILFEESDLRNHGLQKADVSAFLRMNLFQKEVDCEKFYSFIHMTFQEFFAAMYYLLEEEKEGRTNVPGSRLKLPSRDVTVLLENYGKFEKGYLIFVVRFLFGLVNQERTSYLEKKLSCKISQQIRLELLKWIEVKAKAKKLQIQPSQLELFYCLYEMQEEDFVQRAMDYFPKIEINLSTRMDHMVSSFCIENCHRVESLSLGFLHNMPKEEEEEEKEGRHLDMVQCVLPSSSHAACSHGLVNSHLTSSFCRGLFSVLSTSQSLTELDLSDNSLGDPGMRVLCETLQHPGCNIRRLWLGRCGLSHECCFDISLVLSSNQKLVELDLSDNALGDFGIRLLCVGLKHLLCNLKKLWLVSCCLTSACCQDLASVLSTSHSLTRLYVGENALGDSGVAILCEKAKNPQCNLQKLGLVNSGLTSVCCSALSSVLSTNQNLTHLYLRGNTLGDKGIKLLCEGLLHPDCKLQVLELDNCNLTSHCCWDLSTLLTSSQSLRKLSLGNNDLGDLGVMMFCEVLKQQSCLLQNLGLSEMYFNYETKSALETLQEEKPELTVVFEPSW

The experiment addresses T1, NLRP3 inflammasome (Homo sapiens, UniProt Q96P20).
T1 construct: host or cells: THP-1 cells, PMA-differentiated
Description: IL-1β secretion assay (nigericin-activated, PMA-differentiated THP-1 cells, HTRF). As to conditions: PMA-differentiated THP-1 cells; compound 1 hour, then 15 μM nigericin, 3 hours; IL-1β by HTRF; read-out: IL-1β IC50. The class given is cell-based. Here is the method:
10 μL supernatant was removed, and IL-1β levels were monitored using an HTRF assay (CisBio, #62IL1PEC) according to manufacturers' instructions. Viability and pyroptosis was monitored with the addition of PrestoBlue cell viability reagent (Life Technologies, #A13261) directly to the cell culture plate.
IC50 values were calculated from the plot of percentage of inhibition versus the inhibitor concentration by a logistics fit according to: y=A2+(A1−A2)/(1+(x/IC50)^p) where y is the %-inhibition at the inhibitor concentration, x. A1 is the lowest inhibition value, i.e. 0%, and A2 the maximum inhibition value, i.e. 100%. The exponent, p, is the Hill coefficient. The curve fitting was conducted with an internally developed software suite.
NLRP3-dependent IL-1β secretion was stimulated in PMA-differentiated THP-1 cells by the addition of nigericin, and cytokines were measured in the […] after 3 hours. As discussed above, activation of the NLRP3 inflammasome requires both an NF-kB-dependent priming step and the addition of a NLRP3 activator.
(In general: In TR-FRET formats the signal depends on donor and acceptor labels being close together.)
Take `Cc1cc(N[C@H]2C[C@@](C)(O)C2)nnc1-c1ccc(C(F)(F)F)cc1O` [Ex 55, 2-(6-(((cis)-3-Hydroxy-3-methylcyclobutyl)amino)-4-methylpyridazin-3-yl)-5-(trifluoromethyl)phenol]: the concentration for half-maximal inhibition (IC50) stood at 45.8 nM.

As to `Cc1cc(C(F)(F)F)cc(O)c1-c1ccc(NC[C@H](O)C(C)C)nn1` (single isomer, unassigned) [Ex 90b], the IC50 came out at 115 nM.

Turning to `Cc1cc(C(F)(F)F)cc(O)c1-c1ccc(NC[C@@H]2C[C@@H](F)CN2)nn1` [Ex 76, 2-(6-((((2S,4R)-4-Fluoropyrrolidin-2-yl)methyl)amino)pyridazin-3-yl)-3-methyl-5-(trifluoromethyl)phenol], the IC50 came to 89.7 nM.

As for `Cc1ncccc1CNc1ccc(-c2c(O)cc(Cl)cc2C(F)(F)F)nn1` [Ex 35, 5-Chloro-2-(6-(((2-methylpyridin-3-yl)methyl)amino)pyridazin-3-yl)-3-(trifluoromethyl)phenol], the IC50 turned out to be 243 nM.

Turning to `Cc1cc(C(F)(F)F)cc(O)c1-c1ccc(N[C@@H]2CCC[C@@H](O)C2)nn1` [Ex 58, 2-(6-(((1R,3R)-3-Hydroxycyclohexyl)amino)pyridazin-3-yl)-3-methyl-5-(trifluoromethyl)phenol], the IC50 was 58.4 nM.

Turning to `Cc1cc(C(F)(F)F)cc(O)c1-c1ccc(NC[C@H]2CC(F)(F)CN2)nn1` [Ex 23, (R)-2-(6-(((4,4-Difluoropyrrolidin-2-yl)methyl)amino)pyridazin-3-yl)-3-methyl-5-(trifluoromethyl)phenol], the IC50 is 93.4 nM.

Regarding `Cc1cc(C(F)(F)F)cc(O)c1-c1ccc(NC[C@@H]2C[C@H](F)CN2)nn1` [Ex 75, 2-(6-((((2S,4S)-4-Fluoropyrrolidin-2-yl)methyl)amino)pyridazin-3-yl)-3-methyl-5-(trifluoromethyl)phenol], the IC50 came out at 18.3 nM.

With `Cc1cc(C(F)(F)F)cc(O)c1-c1ccc(NC[C@H]2CCCCN2CCO)nn1` (single isomer, unassigned) [Ex 84a], the IC50 came out at 42.5 nM.

Turning to `Cc1cc(C(F)(F)F)cc(O)c1-c1ccc(NC[C@@H](F)C(C)(C)O)nn1` [Ex 60, (R)-2-(6-((2-Fluoro-3-hydroxy-3-methylbutyl)amino)pyridazin-3-yl)-3-methyl-5-(trifluoromethyl)phenol], the IC50 was 139 nM.

With `Cc1cc(C(F)(F)F)cc(O)c1-c1ccc(N[C@@H]2CCC(=O)NC2)nn1` [Ex 61, (R)-5-((6-(2-Hydroxy-6-methyl-4-(trifluoromethyl)phenyl)pyridazin-3-yl)amino)piperidin-2-one], the IC50 came out at 65.8 nM.

As to `Cc1cc(C(F)(F)F)cc(O)c1-c1ccc(N[C@H]2C[C@](O)(C(F)(F)F)C2)nn1` [Ex 67, 2-(6-(((cis)-3-Hydroxy-3-(trifluoromethyl)cyclobutyl)amino)pyridazin-3-yl)-3-methyl-5-(trifluoromethyl)phenol], the IC50 amounted to 40.1 nM.

`C[C@]1(O)C[C@@H](Nc2cc(C(F)(F)F)c(-c3ccc(C(F)(F)F)cc3O)nn2)C1` [Ex 66, 2-(6-(((cis)-3-Hydroxy-3-methylcyclobutyl)amino)-4-(trifluoromethyl)pyridazin-3-yl)-5-(trifluoromethyl)phenol]: the IC50 was determined as 187 nM.

Regarding `Cc1cc(NCC(C)(C)O)nnc1-c1c(C)cc(C(F)(F)F)cc1O` [Ex 73, 2-(6-((2-Hydroxy-2-methylpropyl)amino)-4-methylpyridazin-3-yl)-3-methyl-5-(trifluoromethyl)phenol], the IC50 came out at 154 nM.

Consider `CC(C)(O)CNc1ccc(-c2c(O)cc(C(F)(F)F)cc2Cl)nn1` [Ex 30, 3-Chloro-2-(6-((2-hydroxy-2-methylpropyl)amino)pyridazin-3-yl)-5-(trifluoromethyl)phenol], for which the IC50 stood at 214 nM.

With `Cc1cc(C(F)(F)F)cc(O)c1-c1ccc(NCC(C)(C)N)nn1` [Ex 29, 2-(6-((2-Amino-2-methylpropyl)amino)pyridazin-3-yl)-3-methyl-5-(trifluoromethyl)phenol], the half-inhibitory concentration (IC50) is 169 nM.

In the case of `Cc1cc(C(F)(F)F)cc(O)c1-c1cc(C(F)(F)F)c(NCCO)nn1` [Ex 26, 2-(6-((2-Hydroxyethyl)amino)-5-(trifluoromethyl)pyridazin-3-yl)-3-methyl-5-(trifluoromethyl)phenol], the IC50 turned out to be 165 nM.

As to `Cc1ncccc1CNc1ccc(-c2c(O)cc(C(F)(F)F)cc2Cl)nn1` [Ex 34, 3-Chloro-2-(6-(((2-methylpyridin-3-yl)methyl)amino)pyridazin-3-yl)-5-(trifluoromethyl)phenol], the IC50 is 496 nM.

Regarding `Cc1cc(C(F)(F)F)cc(O)c1-c1ccc(N[C@@H]2CCC[C@H](O)C2)nn1` [Ex 3, 2-(6-(((1R,3S)-3-Hydroxycyclohexyl)amino)pyridazin-3-yl)-3-methyl-5-(trifluoromethyl)phenol], the IC50 came out at 25.5 nM.

On to `Cc1cc(N[C@H]2C[C@@](C)(O)C2)nnc1-c1ccc(Cl)cc1O` [Ex 68, 5-Chloro-2-(6-(((cis)-3-hydroxy-3-methylcyclobutyl)amino)-4-methylpyridazin-3-yl)phenol], for which the IC50 was found to be 89.3 nM.

Regarding `C[C@]1(O)C[C@@H](Nc2cc(C(F)(F)F)c(-c3ccc(Cl)cc3O)nn2)C1` [Ex 69, 5-Chloro-2-(6-(((cis)-3-hydroxy-3-methylcyclobutyl)amino)-4-(trifluoromethyl)pyridazin-3-yl)phenol], the IC50 worked out at 431 nM.

As for `Cc1cc(C(F)(F)F)cc(O)c1-c1ccc(N[C@H]2CCCN3CCC[C@@H]23)nn1` (single isomer, unassigned) [Ex 83b], the IC50 amounted to 69.4 nM.

Take `Cc1cc(C(F)(F)F)cc(O)c1-c1ccc(N[C@@H]2CCCN3CCC[C@H]23)nn1` (single isomer, unassigned) [Ex 83a]: the IC50 turned out to be 0.8 nM.

Regarding `Oc1cc(C(F)(F)F)cc(Cl)c1-c1ccc(N[C@H]2C[C@H](O)C2)nn1` [Ex 32, 3-Chloro-2-(6-((trans-3-hydroxycyclobutyl)amino)pyridazin-3-yl)-5-(trifluoromethyl)phenol], the IC50 is 218 nM.

For the compound `Cc1cc(C(F)(F)F)cc(O)c1-c1ccc(NC(C)(C)CO)nn1` [Ex 79, 2-(6-((1-Hydroxy-2-methylpropan-2-yl)amino)pyridazin-3-yl)-3-methyl-5-(trifluoromethyl)phenol], the IC50 is 370 nM.

Consider `Cc1cc(C(F)(F)F)cc(O)c1-c1ccc(NC[C@H]2CCCN2)nn1` [Ex 14, (R)-3-Methyl-2-(6-((pyrrolidin-2-ylmethyl)amino)pyridazin-3-yl)-5-(trifluoromethyl)phenol], for which the IC50 turned out to be 85.7 nM.

For the compound `Cc1cc(C(F)(F)F)cc(O)c1-c1ccc(Nc2cncnc2)nn1` [Ex 43, 3-Methyl-2-(6-(pyrimidin-5-ylamino)pyridazin-3-yl)-5-(trifluoromethyl)phenol], the IC50 amounted to 281 nM.

`Cc1cc(-c2c(C)cc(C(F)(F)F)cc2O)nnc1N[C@H]1C[C@@](C)(O)C1` [Ex 54, 2-(6-(((cis)-3-Hydroxy-3-methylcyclobutyl)amino)-5-methylpyridazin-3-yl)-3-methyl-5-(trifluoromethyl)phenol]: the IC50 came to 11.8 nM.

Turning to `Cc1cc(C(F)(F)F)cc(O)c1-c1ccc(N[C@H]2C[C@@](C)(O)C2)nn1` [Ex 2, 2-(6-(((cis)-3-Hydroxy-3-methylcyclobutyl)amino)pyridazin-3-yl)-3-methyl-5-(trifluoromethyl)phenol], the IC50 was 10.2 nM.

`Cc1cc(C(F)(F)F)cc(O)c1-c1ccc(NCC2COCCN2C)nn1` (racemic) [Ex 77, (rac)-3-Methyl-2-(6-(((4-methylmorpholin-3-yl)methyl)amino)pyridazin-3-yl)-5-(trifluoromethyl)phenol]: the IC50 was found to be 61.9 nM.

In the case of `Cc1cc(-c2c(C)cc(C(F)(F)F)cc2O)nnc1NCC(C)(C)O` [Ex 72, 2-(6-((2-Hydroxy-2-methylpropyl)amino)-5-methylpyridazin-3-yl)-3-methyl-5-(trifluoromethyl)phenol], the IC50 was determined as 44.9 nM.

`Cc1cc(C(F)(F)F)cc(O)c1-c1ccc(N[C@@H]2CCCN(C)C2=O)nn1` [Ex 59, (R)-3-((6-(2-Hydroxy-6-methyl-4-(trifluoromethyl)phenyl)pyridazin-3-yl)amino)-1-methylpiperidin-2-one]: the IC50 was 35.9 nM.

In the case of `Cc1cc(C(F)(F)F)cc(O)c1-c1ccc(NC2CCC3CCC2N3C)nn1` (single isomer, unassigned) [Ex 85a], the IC50 worked out at 148 nM.

Turning to `Cc1cc(C(F)(F)F)cc(O)c1-c1ccc(N[C@H]2CC[C@H](O)[C@@H]2O)nn1` (single isomer, unassigned) [Ex 89a], the IC50 worked out at 59.7 nM.

On to `CCN1CCC[C@H]1CNc1ccc(-c2c(C)cc(C(F)(F)F)cc2O)nn1` [Ex 8, (S)-2-(6-(((1-Ethylpyrrolidin-2-yl)methyl)amino)pyridazin-3-yl)-3-methyl-5-(trifluoromethyl)phenol], for which the IC50 came to 24.1 nM.

Turning to `Cc1cc(C(F)(F)F)cc(O)c1-c1ccc(NC[C@@H](O)C(C)C)nn1` (single isomer, unassigned) [Ex 90a], the IC50 came out at 64.2 nM.

For the compound `Cc1cc(-c2c(C)cc(C(F)(F)F)cc2O)nnc1NC1CCC(=O)N(C)C1` (stereo not shown) [Ex 99, 5-((6-(2-Hydroxy-6-methyl-4-(trifluoromethyl)phenyl)-4-methylpyridazin-3-yl)amino)-1-methylpiperidin-2-one], the IC50 was determined as 75 nM.

On to `OCCNc1ccc(-c2c(O)cc(C(F)(F)F)cc2Cl)nn1` [Ex 37, 3-Chloro-2-(6-((2-hydroxyethyl)amino)pyridazin-3-yl)-5-(trifluoromethyl)phenol], for which the IC50 is 381 nM.
